US20250163044A1, “COMPOUNDS” (PSYLO PTY LTD, priority 2021, published 2025)

Experiments:
[1] = system: C57BL/6J mice; assay: Biotelemetry and head-twitch response (HTR) experiments; assay type: in vivo, Mice (C57BL/6J males); details: male C57BL/6 mice, SC, several doses (0.03 to 30 mg/kg)
Description: Mice (C57BL/6J males) were purchased from the Jackson Laboratory (Bar Harbor, ME, USA) at 5-6 weeks of age and allowed at least 1-2 weeks to acclimate to the NIDA, Intramural Research Program (IRP), animal research facility in Baltimore, MD, USA. The animal facility is fully accredited by the Association for the Assessment and Accreditation of Laboratory Animal Care, and all procedures were approved by the NIDA IRP Animal Care and Use Committee. Mice were initially group housed 3-5 per cage during acclimation and housed in a 12 h light-dark cycle throughout the study, with lights on at 0700 h. Food and water were available ad libitum except during testing. Cohorts of 20-24 mice were used for each test drug. The mice were subjected to experimental testing once every 1-2 weeks for 2-3 months to complete dose-effect curves and antagonist experiments. A minimum of 7 days between treatments was utilized to avoid any tolerance to effects of repeated drug administration. All drug doses represent the weight of the salt dissolved in 0.9% saline vehicle. Mice were tested first in dose-response studies to assess the effects of each compound at doses from 0.03 to 30 mg/kg s.c. and were subsequently tested in antagonist reversal studies utilizing pretreatment with M100907 and WAY100635. All experiments were conducted from 0900 to 1700 local time during the light phase, as sensitivity of rodents to other tryptamine psychedelics is diurnal, with maximal HTR observed in the middle of the light phase. Experiments were run during the light phase also to avoid any potential influence of melatonin receptor activity on HTR as melatonin and related agonists are known to reduce HTR induced by DOI in rats. For each experiment, mice were acclimated to the testing room in their home cage for at least 1 h prior to experimental sessions. Behavioral test sessions were carried out in Tru Scan mouse locomotor arenas equipped with photobeam arrays (Coulbourn Instruments, Holliston, MA, USA), which were modified with cylindrical inserts and transparent floors useful in detecting mouse HTR.
Subcutaneous Temperature Transponder Implants. At least 1 week prior to the start of the experiments, mice received s.c. implanted temperature transponders (14×2 mm, model IPTT-300, Bio Medic Data Systems, Inc., Seaford, DE, USA) under brief isoflurane anesthesia. Mice were single housed post implant for the remainder of the study to protect the transponder from removal by cage mates. Temperature was determined noninvasively using a handheld receiver that is sensitive to signals emitted from the implanted transponders.
Prior to each experiment, mouse body weight and temperature were recorded. Mice were then placed into testing chambers for acclimation. In dose-response studies, after a brief 5 min acclimation, mouse body temperature was recorded for baseline measurement, mice received s.c. injection of test substance or vehicle, and animals were returned to the testing arena for 30 min. During the session, locomotor activity was monitored via photobeam tracking of movements in the horizontal plane to yield distance traveled in centimeter. HTR was monitored by the analysis of GoPro Hero Black 7 video recordings (120 frames per sec and 960p resolution) using a commercially available software package from Clever Sys Inc. (Reston, VA, USA). 82 Post-treatment body temperature values were also recorded, and temperature data are represented as change from pretreatment baseline.
In antagonist reversal experiments, mice received a s.c. injection of either receptor antagonists or vehicle and were returned to the testing chamber for 30 min. During this period, locomotor activity was monitored to examine the potential effects of antagonist treatment on general behavior or movement. At 30 min after antagonist administration, mice were given test drug or vehicle and returned to the chambers for an additional 30 min of video recording used for analyses. […]

[2] = system: Male ICR mice; assay: Acute restraint stress - tail suspension test (TST); assay type: in vivo; details: ICR mice after 5 h acute restraint stress, IP, 10 min before test; P-3 3, 10 mg/kg; P-8 3, 10, 30 mg/kg
Procedure: Male ICR mice (23±3 g) were purchased from BioLASCO (Taipei, Taiwan) at 4-5 weeks of age and allowed 5-7 days to acclimate to the animal research facility at Pharmacology Discovery Services (Taipei, Taiwan). Mice were housed in groups of 10 in a large cage (47×25×15 cm) on a 12-hour light cycle (lights on: 0700) and provided ad libitum food and water except during acute restraint stress and tail-suspension testing. Temperature was maintained at 20-24° C., and all rooms (colony and testing rooms) had similar lighting intensity. All aspects of this work including housing, experimentation, and animal disposal were performed in accordance with the “Guide for the Care and Use of Laboratory Animals: Eighth Edition” (The National Academies Press, Washington, DC, 2011) in a facility accredited by the Association for Assessment and Accreditation of Laboratory Animal Care. […]
Tail Suspension Test (TST) Procedure: Mice were individually suspended on the edge of a shelf, 58 cm above a tabletop, using adhesive tape placed approximately 1 cm from the tip of the tail, for a total duration of 7 minutes. Using a stopwatch, the experimenters blinded to treatment groups recorded the duration of immobility (defined as hanging passively and motionless) during the 5 minutes spanning from 2-7 minutes. The data from 0-2 minutes was not recorded. […]

[3] = target: T1, 5-HT2B receptor (Homo sapiens, UniProt P41595); assay: FLIPR Ca2+ flux functional assay, agonist activity at 5-HT2B; assay type: cell-based; details: CHO-K1 cells, Ca2+ flux; read-out: 5-HT2B EC50
T1 construct: host or cells: CHO-K1
Summary of the method: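 Stably transfected cells (HEK293 for 5-HT2A/2C, CHO-K1 for 5-HT2B) loaded 50 min at 37° C with Fluo-4 Direct dye plus 2.5 mM probenecid (final). Compounds tested as 10-point serial dilutions (3-fold; references 4-fold) and calcium fluorescence read on FLIPR Tetra after addition.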

T1 sequence (P41595 whole entry): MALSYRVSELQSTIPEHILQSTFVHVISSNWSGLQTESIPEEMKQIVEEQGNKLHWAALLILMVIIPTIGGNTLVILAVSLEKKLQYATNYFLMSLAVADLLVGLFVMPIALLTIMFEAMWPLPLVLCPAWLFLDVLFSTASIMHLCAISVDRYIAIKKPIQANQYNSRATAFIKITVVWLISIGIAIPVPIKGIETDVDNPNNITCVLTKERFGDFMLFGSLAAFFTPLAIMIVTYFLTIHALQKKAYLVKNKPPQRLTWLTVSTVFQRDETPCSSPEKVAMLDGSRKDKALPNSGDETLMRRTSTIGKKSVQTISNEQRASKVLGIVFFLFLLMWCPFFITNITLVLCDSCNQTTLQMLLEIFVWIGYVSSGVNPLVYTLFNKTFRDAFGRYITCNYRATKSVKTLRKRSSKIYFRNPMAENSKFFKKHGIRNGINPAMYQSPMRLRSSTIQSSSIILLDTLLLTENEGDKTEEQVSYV

Structure (SMILES): COc1cnc2[nH]cc(CCN(C)C)c2c1 [Example P-3, 2-(5-methoxy-1H-pyrrolo[2,3-b]pyridin-3-yl)-N,N-dimethylethan-1-amine]
- Head-twitch response (HTR) [1]: not promoting increased head-twitch response
- Tolerability (temperature, locomotor activity) [1]: well-tolerated
- Immobility time in tail suspension test [2]: decrease the immobility time

Structure (SMILES): COc1ccc2[nH]nc(CCN(C)C)c2c1 [Example P-8, 2-(5-methoxy-1H-indazol-3-yl)-N,N-dimethylethan-1-amine]
- EC50 [3]: > 10 µM
- Immobility time in tail suspension test [2]: decrease the immobility time
